Measured values published in US20150183737A1, “COMPOSITIONS AND METHODS FOR SUBSTRATE-SELECTIVE INHIBITION OF ENDOCANNABINOID OXYGENATION” (Vanderbilt University, priority 2012, published 2015).
“Also recorded” adds a separate entry of the source.

Columns and labels:
[1] = test system: ICR mice; assay: Novel open field test; format: in vivo
Procedure: Animals were tested for open-field activity in a novel environment one hour after i.p. injection of compound as described in Sumislawski et al., 2011. Briefly, one-hour sessions were performed using automated experimental chambers (27.9 27.9 cm; MEDOFA-510; MED Associates, Ga., Vermont, United States of America) under constant illumination within a sound-attenuated room. Analysis of open field activity was performed using Activity Monitor v5.10 (MED Associates).

[2] = target: T1, Human DAGLα (Homo sapiens, UniProt Q9Y4D2); assay: DAGLα activity (Compound A); format: biochemical; conditions: in vitro
T1 construct: made in house; host or cells: HEK293T cells (transfected, pcDNA3.1D); membranes used
T1 sequence (Q9Y4D2 1-1042): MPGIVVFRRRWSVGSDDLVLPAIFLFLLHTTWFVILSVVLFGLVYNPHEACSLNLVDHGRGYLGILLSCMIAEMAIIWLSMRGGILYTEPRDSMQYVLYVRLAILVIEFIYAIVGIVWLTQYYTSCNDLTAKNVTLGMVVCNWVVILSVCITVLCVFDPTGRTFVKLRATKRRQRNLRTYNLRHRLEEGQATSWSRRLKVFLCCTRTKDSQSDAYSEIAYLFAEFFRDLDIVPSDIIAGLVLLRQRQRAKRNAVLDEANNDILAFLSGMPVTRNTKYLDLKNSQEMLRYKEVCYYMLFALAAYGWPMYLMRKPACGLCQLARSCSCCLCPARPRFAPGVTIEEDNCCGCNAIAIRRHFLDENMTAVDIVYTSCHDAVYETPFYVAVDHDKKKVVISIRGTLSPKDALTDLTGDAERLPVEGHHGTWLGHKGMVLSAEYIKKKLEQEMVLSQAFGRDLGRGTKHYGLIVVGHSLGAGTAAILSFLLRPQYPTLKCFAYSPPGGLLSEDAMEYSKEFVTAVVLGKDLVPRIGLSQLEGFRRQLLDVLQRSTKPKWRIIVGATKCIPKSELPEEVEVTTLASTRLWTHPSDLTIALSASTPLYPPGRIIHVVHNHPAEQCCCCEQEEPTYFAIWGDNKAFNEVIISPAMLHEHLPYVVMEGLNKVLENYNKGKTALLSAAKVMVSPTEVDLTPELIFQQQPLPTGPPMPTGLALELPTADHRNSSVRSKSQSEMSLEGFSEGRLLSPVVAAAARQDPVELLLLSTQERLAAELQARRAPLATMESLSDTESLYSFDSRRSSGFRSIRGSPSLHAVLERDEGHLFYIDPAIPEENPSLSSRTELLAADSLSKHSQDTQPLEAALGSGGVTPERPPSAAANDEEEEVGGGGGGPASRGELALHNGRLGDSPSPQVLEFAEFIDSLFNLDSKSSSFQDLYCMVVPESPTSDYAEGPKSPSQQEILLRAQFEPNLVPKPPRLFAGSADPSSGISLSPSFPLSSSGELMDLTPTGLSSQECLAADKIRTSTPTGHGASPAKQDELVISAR

[3] = target: T2, COX-2 in stimulated RAW 264.7 macrophages (Mus musculus, UniProt Q05769); assay: RAW 264.7 macrophage inhibition assay (Compound A); format: cell-based
T2 construct: endogenous in cells; host or cells: RAW 264.7 macrophages stimulated with LPS (and GM-CSF / interferon γ where described)
T2 sequence (Q05769 18-604): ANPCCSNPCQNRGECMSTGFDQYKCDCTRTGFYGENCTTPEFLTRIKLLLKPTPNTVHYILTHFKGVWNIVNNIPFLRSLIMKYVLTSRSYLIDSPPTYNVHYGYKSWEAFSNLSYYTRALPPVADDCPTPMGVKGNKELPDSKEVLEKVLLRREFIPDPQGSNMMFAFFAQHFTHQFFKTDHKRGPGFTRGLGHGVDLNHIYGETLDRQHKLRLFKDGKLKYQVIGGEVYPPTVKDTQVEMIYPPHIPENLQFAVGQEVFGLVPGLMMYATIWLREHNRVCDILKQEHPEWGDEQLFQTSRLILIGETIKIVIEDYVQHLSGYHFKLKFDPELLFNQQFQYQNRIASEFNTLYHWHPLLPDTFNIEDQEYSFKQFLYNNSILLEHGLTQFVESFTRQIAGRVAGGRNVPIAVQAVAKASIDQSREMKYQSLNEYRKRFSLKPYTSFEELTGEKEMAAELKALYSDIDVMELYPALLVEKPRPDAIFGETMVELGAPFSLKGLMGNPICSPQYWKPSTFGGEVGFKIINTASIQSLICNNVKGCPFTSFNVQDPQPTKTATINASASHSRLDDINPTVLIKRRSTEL

[4] = test system: ICR mice; assay: Novel object recognition; format: in vivo; conditions: 10 mg/kg i.p., prior to object memory retrieval
Procedure: Mice were handled 4 days prior to training for at least 1 min per day. During pre-training, mice were placed in an open Plexiglas rectangular chamber for 10 minutes in order for the mice to become familiar with the testing environment. Twenty-four hours later, the mice were placed into the same rectangular chamber with two identical sample objects, yellow rubber ducks, for 10 minutes in order for the mice to become familiar with the objects. During training, the sample objects were placed in opposite corners in the back of the chamber 5 cm from each wall and secured by weight to the floor of the chamber. Twenty-four hours later, the mice were placed into the chamber again with one sample or familiar object and a novel object, a white leaf statue, for 5 minutes. During testing, the objects were placed in opposite corners in the back of the chamber 5 cm from each wall and secured by weight to the floor of the chamber.
To determine exploration time with the sample and novel objects, each mouse was timed when interacting with the sample or novel object when the nose of the mouse was in contact with the object or directed toward the object within a 2 cm distance of the object. […] In addition, a discrimination ratio (e.g., ratio of a mouse's interaction with a novel object to that mouse's total interaction with both sample and novel objects) was determined. […]

[5] = lipopolysaccharide-activated RAW 264.7 macrophages
[6] = stimulated RAW 264.7 macrophages

## COc1ccc2c(c1)c(CC(=O)N1CCOCC1)c(C)n2C(=O)c1ccc(Cl)cc1 [Compound A, 2-[1-(4-Chloro-benzoyl)-5-methoxy-2-methyl-1H-indol-3-yl]-1-morpholin-4-yl-ethanone]
[1]; 10 mg/kg
  Center distance travelled and center time in the open-field arena: increased
[1]; Rimonabant 3 mg/kg
  Open field behavior in mice treated with Rimonabant: no significant behavioral effect
[1]; most pronounced during minutes 40-60
  Exploratory behavior and center time exploration in the open field (Example 8): dose-dependently increased
[1]; mouse, in vivo
  Open field behavior (center distance or time) in CB1^(−/−) mice: did not produce any behavioral effect; also recorded: did not increase
  Open field behavior in COX-2^(−/−) mice: did not produce any significant behavioral effects
  Open field behavior in vehicle-pretreated mice: exerting anxiolytic actions
  Open field behavior in wild type littermates of COX-2^(−/−) mice: normal anxiolytic-like response
[1]; open field data
  Hypolocomotion: did not cause hypolocomotion
[2]
  Inhibition of DAGLα: did not inhibit
[3]; [5]
  Inhibition of AA oxygenation in cells: without inhibiting AA oxygenation
  Inhibition of eCB oxygenation by COX-2 in cells: effective at inhibiting eCB oxygenation
[3]; [6]
  2-AG levels: increasing; also recorded: concentration-dependently increased
  AA levels: without increasing AA levels
[3]; stimulated RAW 264.7 macrophages, 3 μM (p=0.007)
  2-AG levels: significantly increased
[4]
  Memory deficits in the novel object recognition assay: did not induce memory deficits
